The subject of series [1] is Soli E1. In words: Inhibition of amidolytic activity by synthetic inhibitors. In kind it is biochemical, Solenopsis invicta.
Series [2] concerns the target T1, Soli C1 (Solenopsis invicta, UniProt Q7SIG2).
T1 construct: Fourth instar larvae were extracted in a 1:10 (weight/volume) ratio of 20 mM Tris-HCl pH 7.4; from tissue; host or cells: whole Solenopsis invicta 4th instar larvae (buffer extract, acetone precipitation, Q Sepharose peak III, Mono Q, Superdex 75)
The class given is biochemical.

For series [3], the system named is Soli C2. In words: Inhibition of amidolytic activity by synthetic inhibitors. The class given is biochemical, Solenopsis invicta.
In series [4] the test system is Soli E2. The series is described as above. The class given is biochemical, Solenopsis invicta.
The target in series [5] is T1, Soli C1. As to the kind of experiment: Inhibition of amidolytic activity by naturally occurring protease inhibitors. The class given is biochemical. Particulars: 10 minutes incubation at 25° C. in 50 mM Tris-HCl, 100 mM NaCl, pH 7.4. On the procedure:
(§1) Enzyme Assay—Generally, the amidolytic activities of each proteinase were measured with the substrates MeOSuc-Ala-Ala-Pro-Val-pNA (SEQ ID NO:8) and N-Suc-Ala-Ala-Pro-Phe-pNA (SEQ ID NO:7) in 0.05 M Tris-HCl and 100 mM NaCl pH 7.4 (assay buffer). Release of the pNA group was assayed by monitoring the optical density of the test solution at […]. Enzyme inhibition assays by protein inhibitors were conducted in the same assay buffer using an inhibitor concentration ranging from 0.02-50 nM with a 10 minute preincubation time and with the final enzyme concentration being 1.0 nM. All kinetic studies with substrates and inhibitors were performed at the optimum pH of the individual proteinases, utilizing the following buffers: 150 mM NaCl, 50 mM Tris-HCl pH 8.0 (E1); 150 mM NaCl, 50 mM CHES pH 9.5 (E2 and C2); and 150 mM NaCl, 50 mM CAPS pH 10.0 (C1).

For series [6], the system named is Soli E1. The series is described as above. To be noted: 10 minutes incubation at 25° C. in 50 mM Tris-HCl, 100 mM NaCl, pH 7.4. In kind it is biochemical, Solenopsis invicta. The procedure:
as §1

The test system of series [7] is Soli C2. Described as above. The class given is biochemical, Solenopsis invicta. Particulars: 10 minutes incubation at 25° C. in 50 mM Tris-HCl, 100 mM NaCl, pH 7.4. The procedure:
as §1

The test system of series [8] is Soli E2. Described as above. To be noted: 10 minutes incubation at 25° C. in 50 mM Tris-HCl, 100 mM NaCl, pH 7.4. In kind it is biochemical, Solenopsis invicta. On the procedure:
as §1

The format of series [9] is physicochemical, Solenopsis invicta. The procedure:
(§2) pH analysis—The determination of pH optimum and stability for each enzyme was performed using a Universal Phosphate Buffer system, which is a buffer made from boric acid and phosphoric acid titrated with sodium hydroxide such that the ionic strength is the same at any pH. Briefly, equal volumes of a solution of 80 mM boric acid and a solution of 80 mM phosphoric acid were combined, and 200 mM sodium hydroxide was added to bring the mixture to the desired pH.

A short description of series [10]: Isoelectrofocusing (IEF) of the purified proteinases. The class given is physicochemical, Solenopsis invicta. To be noted: IEF gels pH 3-10, Serva Test Mix 9 standards. On the procedure: IEF—Isoelectrofocusing of the purified proteinases was performed on precast isoelectric focusing gels (pH 3-10) obtained under the trade designation […] PRECOTES (Cresent Chemical Co., Inc., Hauppauge, N.Y.). Sample preparations and isoelectrofocusing were carried out following instructions provided by Pharmacia and using the Pharmacia Flatbed Electrophoresis Unit.
IEF—Based on Serva Test Mix 9 IEF standards (Cresent Chemical Co., Inc.), the proteinases migrated to the following pI's; Soli E1, 10.0; Soli E2 (3 isoforms), 6.9, 8.3, 8.5; Soli C1, 4.7; and Soli C2, 4.2.

Series [11] in a line: pH optimum of the purified proteinases. The class given is biochemical, Solenopsis invicta. Particulars: Vmax of substrate hydrolysis, room temperature, pH range 3.0 to 12.0. On the procedure:
as §2

Several values for one entry are separate records, joined by “and”; a condition that tells them apart may be missing. Equal values may be shown once. Where a SMILES comes first, the peptide text is derived from it. [ ]: non-standard residue; d: D form. The star is where a group is joined. Sta = CC(C)C[C@H](N)[C@@H](O)CC(=O)O; Isovaleryl = CC(C)CC(=O)* Where only a bound is given, the exact number is not on record here.

T1 sequence (Q7SIG2 whole entry): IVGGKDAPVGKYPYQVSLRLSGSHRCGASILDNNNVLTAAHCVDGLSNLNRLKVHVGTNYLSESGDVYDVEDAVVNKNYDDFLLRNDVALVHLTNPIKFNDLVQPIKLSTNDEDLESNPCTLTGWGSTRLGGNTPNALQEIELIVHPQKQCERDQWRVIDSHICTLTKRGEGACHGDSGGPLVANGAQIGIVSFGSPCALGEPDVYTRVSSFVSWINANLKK

In the case of `CC(C)C[C@H](NC(=O)[C@H]1O[C@@H]1C(=O)O)C(=O)NCCCCN=C(N)N` (relative stereo) [E-64, trans-epoxysuccinyl-L-leucylamido-(4-guanidino)butane], the “Inhibition of Soli E1 by class-specific proteinase inhibitors (in words)” value (“Inhibition of Soli E1” below) in series [1] was “not”. The “Inhibition of Soli C1 by class-specific proteinase inhibitors (in words)” value (shortened to “Inhibition of Soli C1”) in series [2] is on record as “not”. Moreover, in series [3], the “Inhibition of Soli C2 by class-specific proteinase inhibitors (in words)” value (“Inhibition of Soli C2” for short) is given as “not”.

Regarding `O=c1oc(Cl)c(Cl)c2ccccc12` [DCIC, 3,4-dichloroisocoumarin], the “Inhibition of Soli E1” value in series [1] is reported as “inhibited”. For the same compound, in series [4], the “Inhibition of Soli E2 by class-specific proteinase inhibitors (in words)” value is recorded as “inhibited”. In addition, the “Inhibition of Soli C1” value in [2] was “not Soli C1 or Soli C2, except after long incubation periods”. The “Inhibition of Soli C2” value in series [3] is “not Soli C1 or Soli C2, except after long incubation periods”.

On to `O=C(O)CN(CCN(CC(=O)O)CC(=O)O)CC(=O)O` [EDTA, ethylenediaminetetraacetate·2H2O], for which the “Inhibition of Soli E1” value in series [1] was “not”. Besides, the “Inhibition of Soli C1” value in series [2] is listed as “not”. The “Inhibition of Soli C2” value in [3] is “not”.

With `CC(C)CC(=O)N[C@H](C(=O)N[C@H](C(=O)N[C@@H](CC(C)C)[C@@H](O)CC(=O)N[C@@H](C)C(=O)N[C@@H](CC(C)C)[C@@H](O)CC(=O)O)C(C)C)C(C)C` [Pepstatin] (Isovaleryl-VV[Sta]A[Sta]-OH), in [1], the “Inhibition of Soli E1” value was “not”. Further, the “Inhibition of Soli C1” value in series [2] was “not”. In addition, the “Inhibition of Soli C2” value in [3] was “not”.

Turning to “Canadian Goose OM Domain III: Domain III of Canadian goose ovomucoid”, the concentration for half-maximal inhibition (IC50) – broadly, the concentration needed to halve the response being measured – in series [5] was over 50 nM; in series [6], 1.51 nM; in series [7], over 50 nM; in series [8], 27.3 nM.

With “Domestic Goose OM Domain III: Domain III of domestic goose ovomucoid”, the IC50 was over 50 nM in series [5], over 50 nM in series [6], over 50 nM in series [7] and 5.58 nM in [8].

Take “Soli C1: chymotrypsin-like serine proteinase, about 25 kDa, from S. invicta 4th instar larvae (IVGGDAPVGKYPYQVSLRLSG)”: in series [9], the “Stability of enzyme activity” value is on record as “stable for several days”. Also, the pI in [10] is listed as 4.7. Besides, the pH optimum in series [11] was 9.0-10.5.

As to “Soli C2: chymotrypsin-like serine proteinase, about 28 kDa, from S. invicta 4th instar larvae (IVGGEPAPGGAYPFIVSLQV)”, in [9], the “Stability of enzyme activity” value is reported as “lost their activities fairly quickly over all pHs” and the “pH at which most stable” value was 8.0. The same compound showed a pI in series [10] of 4.2. Also, the pH optimum in series [11] is given as 9.0.

Regarding “Soli E1: elastase-like serine proteinase, about 23 kDa, from S. invicta 4th instar larvae (IVGGQPATPGEFPHQGSLRV)”, in series [9], the “Stability of enzyme activity” value is given as “lost their activities fairly quickly over all pHs” and the “pH at which most stable” value amounted to 7.0. Besides, in [10], the pI is reported as 10.0. In addition, in [11], the pH optimum is listed as 8.0.

Take “Soli E2: elastase-like serine proteinase, about 24 kDa, from S. invicta 4th instar larvae (IVGGQDAAPGEFPHQGSLRLRGSHI)”: in series [9], the “Stability of enzyme activity” value was “lost their activities fairly quickly over all pHs” and the “pH at which most stable” value was 8.5. Also, in series [10], the pI is 6.9 and 8.3 and 8.5. For the same compound, in series [11], the pH optimum is 8.5-10.

α1-PI: α-1-Proteinase Inhibitor: the IC50 stood at 0.338 nM in [5], 1.2 nM in series [6], 0.271 nM in series [7] and 0.604 nM in [8].

Source of the values: patent US6399759B1, “Ant proteases and methods of inhibition” (University of Georgia Research Foundation, Inc., priority 1999, dated 2002).
